Here are results for 1 compound from publication PMC12670426 (Journal of Medicinal Chemistry, 2025).

SMILES strings stand for the structures. Where two headings read alike, the source gives them in different places.

Series [1] has as its target T1, intracellular Gal-3 in THP1 cells (Homo sapiens, UniProt P17931).
T1 construct: Untreated cells served as negative and baseline controls representing maximum intracellular Gal-3 levels; endogenous in cells; host or cells: THP1 (monocyte-like or PMA-differentiated macrophage-like)
As to the kind of experiment: Intracellular Gal-3 target engagement in THP1 cells (flow cytometry, MFI). It counts as cell-based. As to conditions: 2 h. The protocol: THP1 cells were used to assess the binding of the tested compounds to Gal-3. Cells were either maintained in suspension as undifferentiated monocyte-like cells or differentiated into macrophage-like cells by overnight treatment with phorbol 12-myristate 13-acetate (PMA, Sigma-Aldrich) at a final concentration of 10 ng/mL. […] Untreated cells served as negative and baseline controls representing maximum intracellular Gal-3 levels. Cells were then harvested and intracellularly stained either with galectin-3 monoclonal antibody eF660 (Invitrogen, Thermo Fisher Scientific) or a relevant isotype antibody (Invitrogen, Thermo Fisher Scientific) for flow cytometric analyses (see below). A dose-dependent decrease in Gal-3 signal upon compound treatment was used to assess intracellular target engagement expressed as median fluorescent intensity (MFI).
(§1) Cells or beads from screening assays prepared for flow cytometry were analyzed by the CytoFlex S instrument (Beckman Coulter). Data acquisition was performed using CytExpert software (v2.5, Beckman Coulter). Debris was excluded by forward and side scatter gating, followed by doublet exclusion. Data were analyzed using FlowJo software (v10, BD Biosciences).
For orientation: A flow cytometer gives signals particle by particle.

A further series is described as follows: Cytotoxicity assay, LX2. As to conditions: human, LX2 cells, viability dye, flow cytometry. It counts as cell-based. The protocol: (§2) To evaluate in vitro cytotoxicity and support its potential application in inflammatory and fibrotic disease models, the following panel of cell lines, representing the relevant biological systems, was used: HEK293, HepG2, THP1, Jurkat E6.1, and LX2. HEK293, HepG2, and Jurkat E6.1 cells were seeded at 400,000 cells/mL, THP1 cells at 500,000 cells/mL, and LX2 cells at 200,000 cells/mL in 96-well plates (cell culture-treated, VWR) in 100 μL/well. Cells were treated with the tested compounds in a serial dilution (300, 100, 33.3, 11.1, and 3.7 μM) for 24 h. Untreated cells served as negative controls to establish the baseline viability threshold. Cell viability was assessed using a viability dye (Zombie Violet Fixable Viability Kit, BioLegend) following the manufacturer’s instructions and analyzed by flow cytometry (see below).
as §1

The target of series [2] is T2, human galectin-1 (Gal-1, full length) (Homo sapiens, UniProt P09382).
T2 construct: Gal-1 is a prototype galectin consisting of a single CRD and was used in full length; 6xHis tag with TEV protease site (N, cleaved yes); made in house; host or cells: BL21 Escherichia coli (pET-15b)
T2 sequence (P09382 2-135): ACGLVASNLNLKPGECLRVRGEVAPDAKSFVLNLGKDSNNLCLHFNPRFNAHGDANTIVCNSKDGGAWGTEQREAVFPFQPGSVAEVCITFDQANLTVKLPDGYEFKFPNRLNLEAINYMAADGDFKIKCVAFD
The series is described as follows: Competitive fluorescence polarization assay, Gal-1. It is filed as binding. The gist of the method:
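Competitive fluorescence polarization (anisotropy) with a fluorescent probe; full-length Gal-1 and C-terminal CRD construct of Gal-3. Read after 30–60 min incubation at 25 °C. Kd fitted with Wang's exact cubic competitive model, rmin/rmax fixed from direct binding.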
(Fluorescence polarisation rises when a labelled molecule tumbles more slowly, as on binding a larger partner.)

A short description of series [3]: Plasma protein binding assay (rapid equilibrium dialysis), mouse plasma. As to conditions: fraction bound, read-out: plasma protein binding Fb mouse (converted). It is filed as in vitro ADME. The protocol: Test compound (10 μM) was incubated at 37 °C for 4 h with mouse, rat, or human plasma (Biowest) in the donor well of a rapid equilibrium dialysis plate (Thermo Fisher Scientific). PBS was placed in the acceptor well. To stop the assay, samples were collected from both wells, and an equal volume of plasma was added to the PBS sample, and vice versa. Proteins were then precipitated by adding three volumes of ice-cold methanol. Samples were mixed gently, kept at −20 °C for 30 min, and then stored at 4 °C overnight. The next day, the samples were centrifuged, and the supernatants were diluted with four volumes of 30% methanol in water. The samples were then analyzed using the Echo-MS system (SCIEX) with MRM transition monitoring, except for compound 3af, which was analyzed by LC–MS/MS as described in the plasma stability assay.
(In equilibrium dialysis free small molecules cross a membrane that holds back macromolecules.)

Series [4] can be described thus: Cytotoxicity assay, HepG2. Particulars: human, HepG2 cells, viability dye, flow cytometry. It is filed as cell-based. The procedure: as §2, §1
Series [5] is described as follows: Plasma stability assay, human plasma. It counts as in vitro ADME. As to conditions: pooled plasma, 37 °C. The procedure:
Test compounds (10 μM) were incubated with mouse, rat, or human pooled plasma from 50 donors (Biowest) at 37 °C for 20, 60, and 120 min. Reactions were terminated by adding four volumes of ice-cold methanol, followed by vigorous mixing. Samples were kept at −20 °C for 30 min and then stored at 4 °C overnight. The next day, samples were centrifuged, and supernatants were diluted with four volumes of 30% methanol in water. Zero time points were prepared by adding ice-cold methanol to the compound prior to the addition of plasma. Samples were then analyzed on an Echo MS system (SCIEX) using multiple reaction monitoring (MRM). The only exception was compound 3af, which was analyzed by LC–MS/MS (SCIEX 6500 triple quadrupole) due to its weak ionization in Echo-MS.

Series [6] is described as follows: Cytotoxicity assay, HEK293. It is filed as cell-based. Particulars: human, HEK293 cells, viability dye, flow cytometry. The procedure: as §2, §1

T1 sequence (P17931 whole entry): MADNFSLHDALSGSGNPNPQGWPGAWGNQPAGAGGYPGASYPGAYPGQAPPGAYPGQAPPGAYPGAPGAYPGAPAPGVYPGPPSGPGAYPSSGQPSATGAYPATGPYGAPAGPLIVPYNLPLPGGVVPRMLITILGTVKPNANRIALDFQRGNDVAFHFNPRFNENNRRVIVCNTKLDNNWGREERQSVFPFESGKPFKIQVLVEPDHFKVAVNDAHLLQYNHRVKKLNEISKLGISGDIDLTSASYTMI

In the case of `CC(=O)N(c1cc(C(=O)O)cc2[nH]ccc12)[C@@H]1O[C@H](CO)[C@@H](S[C@@H]2O[C@H](CO)[C@H](O)[C@H](n3cc(-c4cccc(F)c4)nn3)[C@H]2O)[C@H](O)[C@H]1O` [Compound 11, N-[4-S-(3-Deoxy-3-(4-(3-fluorophenyl)-1H-1,2,3-triazol-1-yl)-β-D-galactopyranosyl)-4-thio-β-D-glucopyranosyl]-N-(6-carboxy-1H-indol-4-yl)acetamide], in series [1] ((+)PMA differentiated THP1, 3.7–300 μM), the “intracellular Gal-3 signal (MFI), macrophage-like THP1 cells” value is “concentration-dependent reduction”. Further, the “intracellular Gal-3 signal (MFI), monocyte-like THP1 cells” value in series [1] ((−)PMA undifferentiated THP1, 3.7–300 μM) is listed as “concentration-dependent reduction”. Further, the CC50 – broadly, the concentration that lowers cell viability or growth by half – at 24 h in “Cytotoxicity assay, LX2” is greater than 300 µM; in series [4] it was greater than 300 µM; in series [6], greater than 300 µM. For the same compound, the IC50 amounted to 4.34 µM in series [2] (CSV supplement, unrounded mean, read-out: Gal1_IC50_mean_uM) and 4.3 ± 0.2 µM in series [2] (four-parameter logistic model, mean ± SD, read-out: IC50 Gal-1). For the same compound, the Kd in series [2] (CSV supplement, unrounded mean, read-out: Gal1_Kd_mean_uM) came out at 2.18 µM; in series [2] (competitive fluorescence polarization, mean ± SD, read-out: Kd Gal-1) it was 2.2 ± 0.3 µM. Further, the fraction unbound at 4 h, 10 μM in series [3] was 0.57. In series [5], the fraction remaining at 2 h, 10 μM was 110 ± 6%.
